In paper PMC9825645 (Traffic (Copenhagen, Denmark), 2022):

Molecular target: T1, AMPH-1 (Amphiphysin 1) (Caenorhabditis elegans, UniProt Q21004)
T1 sequence (Q21004 1-461): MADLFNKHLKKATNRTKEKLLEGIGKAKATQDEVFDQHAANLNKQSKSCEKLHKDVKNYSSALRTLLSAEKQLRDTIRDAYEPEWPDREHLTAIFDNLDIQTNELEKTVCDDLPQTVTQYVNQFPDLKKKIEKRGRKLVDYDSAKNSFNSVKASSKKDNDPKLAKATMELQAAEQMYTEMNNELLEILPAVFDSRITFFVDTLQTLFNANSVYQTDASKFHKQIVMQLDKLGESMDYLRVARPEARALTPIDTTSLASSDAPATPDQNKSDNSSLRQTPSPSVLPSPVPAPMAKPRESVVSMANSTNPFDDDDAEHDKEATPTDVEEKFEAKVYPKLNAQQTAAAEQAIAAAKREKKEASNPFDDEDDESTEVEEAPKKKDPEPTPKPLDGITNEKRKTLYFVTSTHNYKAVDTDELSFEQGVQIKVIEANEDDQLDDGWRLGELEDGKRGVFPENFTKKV
Assay: membrane fission of PS liposomes by burst analysis spectroscopy
Format: biochemical
Settings: 0.5 mM GDP, 1 μM AMPH-1, 30 min; stimulates fission

Compound: Nc1nc2c(ncn2[C@@H]2O[C@H](COP(=O)(O)OP(=O)(O)O)[C@@H](O)[C@H]2O)c(=O)[nH]1 [GDP]
- membrane fission of PS liposomes by burst analysis spectroscopy: GDP stimulates fission to almost the same extent as seen in the presence of GTP
